Data from US20240398828A1, “HETERO-ATOM CONTAINING COMPOUNDS AND USES THEREOF” (Kumquat Biosciences Inc., priority 2021, published 2024).

Key:
PTPN2 (i.e., TC-PTP) = target: T1, PTPN2 (i.e., TC-PTP) (Homo sapiens, UniProt P17706); test: Phosphatase activity assay (DiFMUP substrate), PTPN2; type: biochemical; settings: compounds binned ≤1 uM or >1 uM
T1 sequence (P17706 1-415): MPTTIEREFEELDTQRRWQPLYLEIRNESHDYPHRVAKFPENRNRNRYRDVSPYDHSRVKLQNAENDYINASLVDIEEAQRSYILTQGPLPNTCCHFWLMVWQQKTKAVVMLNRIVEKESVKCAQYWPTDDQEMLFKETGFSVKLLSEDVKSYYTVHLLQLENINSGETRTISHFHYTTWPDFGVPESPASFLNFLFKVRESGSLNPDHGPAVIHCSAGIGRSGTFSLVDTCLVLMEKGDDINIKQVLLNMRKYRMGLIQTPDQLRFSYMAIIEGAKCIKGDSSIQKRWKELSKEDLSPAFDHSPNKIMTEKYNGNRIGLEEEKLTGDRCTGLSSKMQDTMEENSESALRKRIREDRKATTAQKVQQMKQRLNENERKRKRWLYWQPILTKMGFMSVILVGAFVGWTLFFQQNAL
How it was run: (§1)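 Continuous fluorogenic readout of DiFMUP dephosphorylation at room temperature, substrate set at Km for each phosphatase (about 45 μM in the PTPN2 assay). The buffer contains 1 mM DTT and 0.001% Tween-20, pH 7.5.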

PTPN1 (i.e., PTP1B) = target: T2, PTPN1 (i.e., PTP1B) (Homo sapiens, UniProt P18031); test: Phosphatase activity assay (DiFMUP substrate), PTP1B; type: biochemical; settings: compounds binned ≤1 uM or >1 uM
T2 sequence (P18031 1-435): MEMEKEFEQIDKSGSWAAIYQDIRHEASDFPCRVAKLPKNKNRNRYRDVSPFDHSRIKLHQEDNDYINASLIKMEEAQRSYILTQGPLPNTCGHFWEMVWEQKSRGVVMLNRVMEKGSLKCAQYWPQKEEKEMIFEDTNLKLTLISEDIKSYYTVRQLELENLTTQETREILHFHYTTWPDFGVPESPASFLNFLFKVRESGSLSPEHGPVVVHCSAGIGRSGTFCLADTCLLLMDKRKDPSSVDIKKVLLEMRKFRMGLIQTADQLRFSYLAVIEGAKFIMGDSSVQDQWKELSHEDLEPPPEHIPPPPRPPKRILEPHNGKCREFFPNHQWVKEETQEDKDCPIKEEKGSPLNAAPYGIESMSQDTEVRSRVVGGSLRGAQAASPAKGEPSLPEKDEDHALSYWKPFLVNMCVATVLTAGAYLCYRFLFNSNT
How it was run: as §1

Row | Structure (SMILES) | IC50 (PTPN2 (i.e., TC-PTP)) [nM] | IC50 (PTPN1 (i.e., PTP1B)) [nM]
1 | O=C1CN(c2c(O)ccc(-c3cn[nH]c3)c2F)S(=O)(=O)N1 [Compound 477, 5-(2-fluoro-6-hydroxy-3-(1H-pyrazol-4-yl)phenyl)-1,2,5-thiadiazolidin-3-one 1,1-dioxide] | ≤ 1000 | ≤ 1000
2 | CC(=O)N(C)C1CC=C(c2ccc(O)c(N3CC(=O)NS3(=O)=O)c2F)CC1 (stereo not drawn) [Compound 377, N-(3′-(1,1-dioxido-4-oxo-1,2,5-thiadiazolidin-2-yl)-2′-fluoro-4′-hydroxy-2,3,4,5-tetrahydro-[1,1′-biphenyl]-4-yl)-N-methylacetamide] | ≤ 1000 | ≤ 1000
3 | O=C1CN(c2c(O)ccc(-c3coc(-c4ccccc4)n3)c2F)S(=O)(=O)N1 [Compound 173, 5-(2-fluoro-6-hydroxy-3-(2-phenyloxazol-4-yl)phenyl)-1,2,5-thiadiazolidin-3-one 1,1-dioxide] | ≤ 1000 | ≤ 1000
4 | O=C1CN(c2c(O)ccc(C3=CC(CO)NC3)c2F)S(=O)(=O)N1 (stereo not drawn) [Compound 398, 5-(2-fluoro-6-hydroxy-3-(5-(hydroxymethyl)-2,5-dihydro-1H-pyrrol-3-yl)phenyl)-1,2,5-thiadiazolidin-3-one 1,1-dioxide] | ≤ 1000 | ≤ 1000
5 | O=C1CN(c2c(O)ccc(C3=CC(CCC4CC4)NC3)c2F)S(=O)(=O)N1 (stereo not drawn) [Compound 539, 5-(3-(5-(2-cyclopropylethyl)-2,5-dihydro-1H-pyrrol-3-yl)-2-fluoro-6-hydroxyphenyl)-1,2,5-thiadiazolidin-3-one 1,1-dioxide] | ≤ 1000 | ≤ 1000
6 | O=C1CN(c2c(O)ccc(-c3cc(N4CCC5(COC5)C4)n[nH]3)c2F)S(=O)(=O)N1 [Compound 431, 5-(3-(3-(2-oxa-6-azaspiro[3.4]octan-6-yl)-1H-pyrazol-5-yl)-2-fluoro-6-hydroxyphenyl)-1,2,5-thiadiazolidin-3-one 1,1-dioxide] | ≤ 1000 | ≤ 1000
7 | N#CCc1cc(-c2ccc(O)c(N3CC(=O)NS3(=O)=O)c2F)[nH]n1 [Compound 365, 2-(5-(3-(1,1-dioxido-4-oxo-1,2,5-thiadiazolidin-2-yl)-2-fluoro-4-hydroxyphenyl)-1H-pyrazol-3-yl)acetonitrile] | ≤ 1000 | ≤ 1000
8 | CN1CC2(CCC(n3cc(-c4ccc(O)c(N5CC(=O)NS5(=O)=O)c4F)cn3)C2)C1 (stereo not drawn) [Compound 442, 5-(2-fluoro-6-hydroxy-3-(1-(2-methyl-2-azaspiro[3.4]octan-6-yl)-1H-pyrazol-4-yl)phenyl)-1,2,5-thiadiazolidin-3-one 1,1-dioxide] | ≤ 1000 | ≤ 1000
9 | Cc1cc(-c2ccc(O)c(N3CC(=O)NS3(=O)=O)c2F)on1 [Compound 182, 5-(2-fluoro-6-hydroxy-3-(3-methylisoxazol-5-yl)phenyl)-1,2,5-thiadiazolidin-3-one 1,1-dioxide] | ≤ 1000 | ≤ 1000
10 | O=C1CN(c2c(O)ccc(-c3c[nH]c(CCC4CC4)c3)c2F)S(=O)(=O)N1 [Compound 257, 5-(3-(5-(2-cyclopropylethyl)-1H-pyrrol-3-yl)-2-fluoro-6-hydroxyphenyl)-1,2,5-thiadiazolidin-3-one 1,1-dioxide] | ≤ 1000 | ≤ 1000
11 | O=C1CN(c2c(O)ccc(C3=CCC(NCC4CC4)CC3)c2F)S(=O)(=O)N1 (stereo not drawn) [Compound 315, 5-(4′-((cyclopropylmethyl)amino)-2-fluoro-4-hydroxy-2′,3′,4′,5′-tetrahydro-[1,1′-biphenyl]-3-yl)-1,2,5-thiadiazolidin-3-one 1,1-dioxide] | ≤ 1000 | ≤ 1000
12 | O=C1CN(c2c(O)ccc(-c3ccc(OCc4ccccc4)nc3)c2F)S(=O)(=O)N1 [Compound 143, 5-(3-(6-(benzyloxy)pyridin-3-yl)-2-fluoro-6-hydroxyphenyl)-1,2,5-thiadiazolidin-3-one 1,1-dioxide] | ≤ 1000 | ≤ 1000
13 | O=C1CN(c2c(O)ccc(-c3ncc(C4CC4)[nH]3)c2F)S(=O)(=O)N1 [Compound 347, 5-(3-(5-cyclopropyl-1H-imidazol-2-yl)-2-fluoro-6-hydroxyphenyl)-1,2,5-thiadiazolidin-3-one 1,1-dioxide] | ≤ 1000 | ≤ 1000
14 | O=C1CN(c2c(O)ccc(C3=CC(=O)OC3)c2F)S(=O)(=O)N1 [Compound 513, 5-(2-fluoro-6-hydroxy-3-(5-oxo-2,5-dihydrofuran-3-yl)phenyl)-1,2,5-thiadiazolidin-3-one 1,1-dioxide] | ≤ 1000 | ≤ 1000
15 | O=C1CN(c2c(O)ccc(-c3cc(C4=CCOC4)n[nH]3)c2F)S(=O)(=O)N1 [Compound 362, 5-(3-(3-(2,5-dihydrofuran-3-yl)-1H-pyrazol-5-yl)-2-fluoro-6-hydroxyphenyl)-1,2,5-thiadiazolidin-3-one 1,1-dioxide] | ≤ 1000 | ≤ 1000
16 | Cn1ccc(-c2cc(-c3ccc(O)c(N4CC(=O)NS4(=O)=O)c3F)[nH]n2)c1 [Compound 333, 5-(2-fluoro-6-hydroxy-3-(3-(1-methyl-1H-pyrrol-3-yl)-1H-pyrazol-5-yl)phenyl)-1,2,5-thiadiazolidin-3-one 1,1-dioxide] | ≤ 1000 | ≤ 1000
17 | O=C1CN(c2c(O)ccc(C3=CCNC3)c2F)S(=O)(=O)N1 [Compound 489, 5-(3-(2,5-dihydro-1H-pyrrol-3-yl)-2-fluoro-6-hydroxyphenyl)-1,2,5-thiadiazolidin-3-one 1,1-dioxide] | ≤ 1000 | ≤ 1000
18 | O=C1CN(c2c(O)ccc(C3=CCCNC3)c2F)S(=O)(=O)N1 [Compound 511, 5-(2-fluoro-6-hydroxy-3-(1,2,5,6-tetrahydropyridin-3-yl)phenyl)-1,2,5-thiadiazolidin-3-one 1,1-dioxide] | ≤ 1000 | ≤ 1000
19 | O=C1CN(c2c(O)ccc(-c3cnn(Cc4ccc(C(F)(F)F)cc4)c3)c2F)S(=O)(=O)N1 [Compound 217, 5-(2-fluoro-6-hydroxy-3-(1-(4-(trifluoromethyl)benzyl)-1H-pyrazol-4-yl)phenyl)-1,2,5-thiadiazolidin-3-one 1,1-dioxide] | ≤ 1000 | ≤ 1000
20 | O=C1CN(c2c(O)ccc(-c3c[nH]cn3)c2F)S(=O)(=O)N1 [Compound 158, 5-(2-fluoro-6-hydroxy-3-(1H-imidazol-4-yl)phenyl)-1,2,5-thiadiazolidin-3-one 1,1-dioxide] | ≤ 1000 | ≤ 1000
21 | Cc1c(C2CC2)n[nH]c1-c1ccc(O)c(N2CC(=O)NS2(=O)=O)c1F [Compound 254, 5-(3-(3-cyclopropyl-4-methyl-1H-pyrazol-5-yl)-2-fluoro-6-hydroxyphenyl)-1,2,5-thiadiazolidin-3-one 1,1-dioxide] | ≤ 1000 | ≤ 1000
22 | O=C1CN(c2c(O)ccc(-c3cn(C4CCC(F)CC4)cn3)c2F)S(=O)(=O)N1 (stereo not drawn) [Compound 306, 5-(2-fluoro-3-(1-(4-fluorocyclohexyl)-1H-imidazol-4-yl)-6-hydroxyphenyl)-1,2,5-thiadiazolidin-3-one 1,1-dioxide] | ≤ 1000 | ≤ 1000
23 | CO[C@H]1CC[C@H](n2cc(-c3ccc(O)c(N4CC(=O)NS4(=O)=O)c3F)cn2)CC1 [Compound 426, 5-(2-fluoro-6-hydroxy-3-(1-((1r,4r)-4-methoxycyclohexyl)-1H-pyrazol-4-yl)phenyl)-1,2,5-thiadiazolidin-3-one 1,1-dioxide] | ≤ 1000 | ≤ 1000
24 | O=C1CN(c2c(O)ccc(C3=CCN(CC4CC4)C3)c2F)S(=O)(=O)N1 [Compound 496, 5-(3-(1-(cyclopropylmethyl)-2,5-dihydro-1H-pyrrol-3-yl)-2-fluoro-6-hydroxyphenyl)-1,2,5-thiadiazolidin-3-one 1,1-dioxide] | ≤ 1000 | ≤ 1000
25 | Cn1nc(-c2ccc(O)c(N3CC(=O)NS3(=O)=O)c2F)cc1C1CC1 [Compound 367, 5-(3-(5-cyclopropyl-1-methyl-1H-pyrazol-3-yl)-2-fluoro-6-hydroxyphenyl)-1,2,5-thiadiazolidin-3-one 1,1-dioxide] | ≤ 1000 | ≤ 1000
26 | O=C1CN(c2c(O)ccc(-c3ccnc(-c4ccccc4)c3)c2F)S(=O)(=O)N1 [Compound 136, 5-(2-fluoro-6-hydroxy-3-(2-phenylpyridin-4-yl)phenyl)-1,2,5-thiadiazolidin-3-one 1,1-dioxide] | > 1000 | ≤ 1000
27 | Cc1cn(-c2ccc(O)c(N3CC(=O)NS3(=O)=O)c2F)nc1O [Compound 299, 5-(2-fluoro-6-hydroxy-3-(3-hydroxy-4-methyl-1H-pyrazol-1-yl)phenyl)-1,2,5-thiadiazolidin-3-one 1,1-dioxide] | ≤ 1000 | ≤ 1000
